In patent US7666875B2, “Hydantoin compounds” (Eisai R&D Management Co., Ltd., priority 2005, dated 2010):
Read-outs that look alike come from different tables or passages of the source.

Target: T1, human T-bet (Homo sapiens, UniProt Q9UL17)
T1 construct: expressed in transfected cells; host or cells: engineered HEK cells (HEKT-bet)
T1 sequence (Q9UL17 1-535): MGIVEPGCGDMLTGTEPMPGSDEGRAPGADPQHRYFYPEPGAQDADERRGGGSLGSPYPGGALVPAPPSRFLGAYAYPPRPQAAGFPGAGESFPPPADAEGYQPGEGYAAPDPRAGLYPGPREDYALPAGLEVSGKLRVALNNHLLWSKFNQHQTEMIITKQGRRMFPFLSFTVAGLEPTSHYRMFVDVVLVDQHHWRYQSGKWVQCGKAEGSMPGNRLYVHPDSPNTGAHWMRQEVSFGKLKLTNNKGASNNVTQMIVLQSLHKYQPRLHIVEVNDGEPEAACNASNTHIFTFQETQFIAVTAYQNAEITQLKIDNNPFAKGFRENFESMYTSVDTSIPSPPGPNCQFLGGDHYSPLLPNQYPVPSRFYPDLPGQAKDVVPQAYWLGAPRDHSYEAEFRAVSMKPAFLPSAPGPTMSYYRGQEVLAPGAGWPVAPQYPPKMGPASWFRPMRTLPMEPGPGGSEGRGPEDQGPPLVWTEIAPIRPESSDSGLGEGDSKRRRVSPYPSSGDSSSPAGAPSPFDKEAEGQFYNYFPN
Experiment: HEKT-bet-luc assay (T-bet dependent luciferase reporter in engineered HEK cells)
Type: cell-based
Description: HEKT-bet-luc assay: This assay measures a T-bet dependent reporter (luciferase) activity in engineered HEK cells that express a human T-bet and a T-box responsive element driving luciferase reporter. HEKT-bet cells were plated at 2×10^4/well in 96-well plate and compound was added into cell culture for 24 hours. Luciferase activity was measured by adding 50 μl of Steady-Glo reagent (Promega) and samples were read in Victor V reader (PerkinElmer). The IC50 values were calculated utilizing a maximum value corresponding to the amount of luciferase in the absence of a test compound and a minimum value corresponding to a test compound value obtained at maximum inhibition.
Determination of Normalized HEKT-bet IC50 values: Compounds were assayed in microtiter plates. Each plate included a reference compound which was ER-213038. The un-normalized IC50 value for a particular compound was divided by the IC50 value determined for the reference compound in the same microtiter plate to provide a relative potency value. The relative potency value was then multiplied by the established potency of the reference compound to provide the normalized HEKT-bet IC50 value. […] The IC50 values provided herein were obtained using this normalization method.

[1] = Table 4, HEKT-bet cells, compound 24 hours, IC50 normalized to reference ER-213038, read-out: IC50
[2] = Table 3, HEKT-bet cells, compound 24 hours, IC50 normalized to reference ER-213038, read-out: IC50

IC50 [1]	SMILES	other results
164 nM	CCc1ccccc1CN1CCC2(CC1)C(=O)N(Cc1cccc(OC)c1)C(=O)N2CCOC [Example 158]	–
351 nM	COCCN1C(=O)N(Cc2cccc(OC)c2)C(=O)C12CCN(Cc1cccc(-c3ccncc3)c1)CC2 [Example 218]	–
542 nM	COCCN1C(=O)N(Cc2cccc(OC)c2)C(=O)C12CCN(Cc1ccc(F)c(OC)c1)CC2 [Example 278]	–
325 nM	COCCN1C(=O)N(Cc2cccc(OC)c2)C(=O)C12CCN(Cc1cc(-c3ccccc3)ccc1OC)CC2 [Example 209]	–
148 nM	COCCN1C(=O)N(Cc2ccc3ccccc3c2)C(=O)C12CCN(Cc1cc(OC)cc(OC)c1)CC2 [Example 151]	–
599 nM	COCCN1C(=O)N(Cc2cccc(OC)c2)C(=O)C12CCN(Cc1cccc(OC)c1F)CC2 [Example 301]	–
414 nM	COCCN1C(=O)N(Cc2cc(OC)cc(OC)c2)C(=O)C12CCN(Cc1cccc(OC)c1)CC2 [Example 237]	–
–	COc1cccc(CN2C(=O)N(Cc3ccc(Cl)cc3)C3(CCN(Cc4ccccc4)CC3)C2=O)c1 [Example 116]	IC50 [2]: 1830 nM
–	COCCN1C(=O)N(Cc2cccc(OC)c2)C(=O)C12CCN(Cc1cc(O)c(OC)c(OC)c1)CC2 [Example 118]	IC50 [2]: 1880 nM
511 nM	COCCN1C(=O)N(Cc2cccc(OC)c2)C(=O)C12CCN(Cc1c(F)cccc1OC)CC2 [Example 268]	–
130 nM	CCOc1ccc2ccccc2c1CN1CCC2(CC1)C(=O)N(Cc1cccc(OC)c1)C(=O)N2CCOC [Example 142]	–
546 nM	CCN1C(=O)N(CCCc2ccccc2)C(=O)C12CCN(Cc1cccc3ccccc13)CC2 [Example 280]	–
373 nM	COCCN1C(=O)N(Cc2cccc(OC)c2)C(=O)C12CCN(Cc1cc3ccccc3nc1Cl)CC2 [Example 227]	–
–	COc1cc(CN2CCC3(CC2)C(=O)N(C/C=C/c2ccccc2)C(=O)N3CCO)cc(OC)c1 [compound 45]	IC50 (Table 2, HEKT-bet cells, compound 24 hours, IC50 normalized to reference ER-213038, read-out: IC50): 62 nM
450 nM	COCCN1C(=O)N(Cc2cc(F)cc(F)c2)C(=O)C12CCN(Cc1cc(OC)cc(OC)c1)CC2 [Example 253]	–
169 nM	COCCN1C(=O)N(Cc2cccc(OC)c2)C(=O)C12CCN(Cc1ccc3ccccc3c1)CC2 [Example 161]	–
518 nM	COCCN1C(=O)N(Cc2cccc(OC)c2)C(=O)C12CCN(Cc1cc(OC)c(Cl)cc1F)CC2 [Example 270]	–
–	COc1cccc(CN2C(=O)N(CCOCc3ccccc3)C3(CCN(Cc4ccccc4)CC3)C2=O)c1 [Example 112]	IC50 [2]: 1570 nM
–	COCCN1C(=O)N(Cc2cccc(OC)c2)C(=O)C12CCN(Cc1ccccc1OC(F)(F)F)CC2 [Example 103]	IC50 [2]: 1340 nM
441 nM	COCCCN1C(=O)N(Cc2cccc(OC)c2)C(=O)C12CCN(Cc1cc(OC)cc(OC)c1)CC2 [Example 249]	–
124 nM	COCN1C(=O)N(C/C=C/c2ccccc2)C(=O)C12CCN(Cc1cc(OC)cc(OC)c1)CC2 [Example 136]	–

IC50 [1]	SMILES	other results
60 nM	COCCN1C(=O)N(Cc2cccc(OC)c2)C(=O)C12CCN(Cc1c(C)ccc3ccccc13)CC2 [Example 123]	–
395 nM	COCCN1C(=O)N(Cc2ccc(OC(F)(F)F)cc2)C(=O)C12CCN(Cc1ccccc1)CC2 [Example 236]	–
235 nM	CN1C(=O)N(C/C=C/c2ccccc2)C(=O)C12CCN(Cc1cccc3ccccc13)CC2 [Example 184]	–
–	COCCN1C(=O)N(Cc2cccc(OC)c2)C(=O)C12CCN(Cc1cccc3nsnc13)CC2 [Example 101]	IC50 [2]: 1240 nM
203 nM	COCCN1C(=O)N(Cc2cccc(OC)c2)C(=O)C12CCN(Cc1cccc(N3CCCC3)c1)CC2 [Example 176]	–
510 nM	COCCN1C(=O)N(Cc2cccc(OC)c2)C(=O)C12CCN(Cc1cccc3cc[nH]c13)CC2 [Example 267]	–
285 nM	COc1cccc(CN2C(=O)N(CCO)C3(CCN(Cc4cc(OC)cc(OC)c4)CC3)C2=O)c1 [Example 200]	–
379 nM	COCCN1C(=O)N(Cc2cccc(OC)c2)C(=O)C12CCN(Cc1cccc(N3CCOCC3)c1)CC2 [Example 230]	–
365 nM	CCN1C(=O)N(CCCc2ccccc2)C(=O)C12CCN(Cc1cc(OC)cc(OC)c1)CC2 [Example 221]	–
–	COCCN1C(=O)N(Cc2cccc(OC)c2)C(=O)C12CCN(Cc1cc(C)c(C)s1)CC2 [Example 91]	IC50 [2]: 845 nM
–	COCCN1C(=O)N(Cc2cccc(OC)c2)C(=O)C12CCN(Cc1cccc(OC)c1)CC2 [Example 170]	IC50 (reference compound used for normalization on each microtiter plate, read-out: established potency of the reference compound (HEKT-bet IC50)): 190 nM
498 nM	COCCN1C(=O)N(Cc2ccc3ccccc3c2)C(=O)C12CCN(Cc1ccccc1)CC2 [Example 263]	–
153 nM	COCN1C(=O)N(Cc2cc(OC)cc(OC)c2)C(=O)C12CCN(Cc1cc(OC)cc(OC)c1)CC2 [Example 154]	–
147 nM	COCCN1C(=O)N(Cc2cccc(OC)c2)C(=O)C12CCN(Cc1cc(C)ccc1C)CC2 [Example 150]	–
73 nM	COc1cc(CN2CCC3(CC2)C(=O)N(C/C=C/c2ccccc2)C(=O)N3Cc2cccc(-n3cccc3)c2)cc(OC)c1 [Example 126]	–
484 nM	COCCN1C(=O)N(Cc2cccc(OC)c2)C(=O)C12CCN(Cc1cccc(-c3cccc(OC)c3)c1)CC2 [Example 259]	–
438 nM	COCCN1C(=O)N(CCCc2ccccc2)C(=O)C12CCN(Cc1cccc(C)c1)CC2 [Example 248]	–
200 nM	COCCN1C(=O)N(Cc2cccc(OC)c2)C(=O)C12CCN(Cc1c3ccccc3c(C)c3ccccc13)CC2 [Example 175]	–
260 nM	COCCN1C(=O)N(Cc2cccc(OC)c2)C(=O)C12CCN(Cc1c(C)c(C)cc(C)c1C)CC2 [Example 192]	–
451 nM	COCCN1C(=O)N(Cc2cccc(OC)c2)C(=O)C12CCN(Cc1cccc(-c3ccco3)c1)CC2 [Example 254]	–
436 nM	O=C1N(C/C=C/c2ccccc2)C(=O)C2(CCN(Cc3cccc4ccccc34)CC2)N1Cc1cccc2cccnc12 [Example 247]	–

IC50 [1]	SMILES	other results
–	COc1cccc(CN2C(=O)N(Cc3cccc4cccnc34)C3(CCN(Cc4cccc5ccccc45)CC3)C2=O)c1 [Example 105]	IC50 [2]: 1390 nM
183 nM	COCCN1C(=O)N(C/C=C/c2ccccc2F)C(=O)C12CCN(Cc1ccccc1)CC2 [Example 165]	–
223 nM	COCCN1C(=O)N(Cc2cccc(OC)c2)C(=O)C12CCN(Cc1cc3c(OC)cccc3cc1OC)CC2 [Example 180]	–
82 nM	COCCN1C(=O)N(Cc2cccc(OC)c2)C(=O)C12CCN(Cc1ccc(C)c3ccccc13)CC2 [Example 127]	–
486 nM	CCN1C(=O)N(CCCOc2ccccc2)C(=O)C12CCN(Cc1cccc3ccccc13)CC2 [Example 260]	–
373 nM	COCCN1C(=O)N(Cc2cccc(OC)c2)C(=O)C12CCN(Cc1cccc(N3CCCCC3)c1)CC2 [Example 225]	–
481 nM	COCCN1C(=O)N(Cc2cccc(OC)c2)C(=O)C12CCN(Cc1cccc(-c3ccoc3)c1)CC2 [Example 258]	–
215 nM	COc1cccc(CN2C(=O)N(Cc3ccccn3)C3(CCN(Cc4cc(OC)cc(OC)c4)CC3)C2=O)c1 [Example 179]	–
385 nM	COCCN1C(=O)N(CCCOc2ccccc2)C(=O)C12CCN(Cc1ccc3ccccc3c1)CC2 [Example 232]	–
479 nM	COCCN1C(=O)N(Cc2cccc(OC)c2)C(=O)C12CCN(Cc1ccc3c(c1)Cc1ccccc1-3)CC2 [Example 257]	–
510 nM	CCN1C(=O)N(Cc2cccc(OC)c2)C(=O)C12CCN(Cc1cccc(C)c1)CC2 [Example 266]	–
553 nM	COc1cccc(CN2C(=O)N(CCCO)C3(CCN(Cc4cc(OC)cc(OC)c4)CC3)C2=O)c1 [Example 285]	–
579 nM	COc1cccc(CN2C(=O)N(Cc3ccccc3)C3(CCN(Cc4cc(OC)cc(OC)c4)CC3)C2=O)c1 [Example 293]	–
–	COCCN1C(=O)N(CCOCc2ccccc2)C(=O)C12CCN(Cc1ccccc1)CC2 [Example 119]	IC50 [2]: 1930 nM
235 nM	O=C1N(C/C=C/c2ccccc2)C(=O)C2(CCN(Cc3cccc4ccccc34)CC2)N1Cc1cccnc1 [Example 185]	–
337 nM	COCCN1C(=O)N(Cc2cccc(OC)c2)C(=O)C12CCN(Cc1ccc3ccccc3c1)CC2 [Example 213]	–
561 nM	CCN1C(=O)N(CCc2cc(OC)cc(OC)c2)C(=O)C12CCN(Cc1cc(OC)cc(OC)c1)CC2 [Example 287]	–
142 nM	COCCN1C(=O)N(Cc2cccc(OC)c2)C(=O)C12CCN(Cc1ccc3c4c(cccc14)CC3)CC2 [Example 147]	–
125 nM	COc1cccc(CN2C(=O)N(Cc3ccncc3)C3(CCN(Cc4cccc5ccccc45)CC3)C2=O)c1 [Example 138]	–
